# Test results: patent publication US12491176B2, “Methods, compositions, kits and uses thereof targeting and/or treating VRK2 to enhance effectiveness of immune checkpoint inhibitor(s)” (THE TRUSTEES OF COLUMBIA UNIVERSITY IN THE CITY OF NEW YORK, priority 2021, dated 2025)
# Entries after “also recorded” stand apart in the source; their conditions may differ.
# Tests used:
# [1] = system: MC38 tumor; test: MC38 syngeneic mouse tumor model, tumor growth; type: in vivo
# Description: (§1) One million MC38 or 4T1 cells were used for inoculation, implanted subcutaneously in the right hind flank of mice. Tumor growth was monitored using electronic calipers and calculated according to the formula: V=length×width^2×0.52. For T cell phenotypic analysis by flow cytometry, spleens and inguinal lymph nodes were harvested 17 days post-treatment initiation. Splenic and tdLN cells were stained with anti-mouse antibodies for flow cytometry analysis. To deplete T cells, mice received intraperitoneal injection of 200 μg anti-CD4 (BioXcell BE0003) and 200 μg anti-CD8 (BioXcell BE0061) antibodies in PBS, a second dose of the antibodies was administered two days later. […] Cell viability was measured with PrestoBlue (Invitrogen). […] Prexasertib was given S.C. at 10 mg/kg. All drugs were given for 12 days.
# (§2) The MC38 syngeneic mouse tumor model was used to determine whether VRK2 inhibition alone or in combination with PD-1 blockade would improve anti-tumor immune response (see, e.g., FIG. 3A).
# Utilizing an immunocompetent syngeneic model, C57BL/6 mice were injected with colon adenocarcinoma cell line MC38 and treated with kinase inhibitors as monotherapy or in combination with a mouse immune checkpoint blocking antibody (clone RMP1.14) for PD-1.
# [2] = system: PAK2 S197 phosphorylation; test: Western blot of PAK2 S197 phosphorylation in Jurkat T cells following PD-1 ligation; type: cell-based, human
# Method: To determine PAK phosphorylation, 5×10^6 Jurkat T cells were washed with cold PBS and resuspended in complete RPMI. The cells were stimulated for 5 minutes with Dynabeads at 37° C. as indicated above (beads/cells ratio of 3:1). The samples were treated with Calyculin A (CST 99025) at 100 nM for 25 minutes at 37° C., washed once with cold PBS and centrifugation at 500×g and lysed with RIPA buffer supplemented with PhosStop (Roche) for 1 hr at 4° C. Following 10 second sonication and centrifugation at 12,000×g for 10 minutes at 4° C., the samples were blotted using Phospho-PAK1 (Ser199/204)/PAK2 (Ser192/197) antibody (Cell Signaling). Blots were imaged and analyzed using Licor Odyssey.
# Therefore, it was sought to validate the in silico predictions in Jurkat T cells with and without pharmacological VRK2 inhibition as well as in shRNA VRK2 knockdown Jurkat T cell line.
# [3] = system: 4T1 tumor; test: 4T1 mouse breast cancer tumor model in BALB/c mice, tumor growth; type: in vivo
# Description: as §1
# [4] = system: T cells in tdLN and spleen; test: T cell phenotypic analysis by flow cytometry in tdLN and spleen of MC38 tumor mice; type: in vivo, mouse
# Description: as §1, §2
# [5] = system: mouse splenocytes; conditions: overnight treatment
# [6] = system: PD-1 signaling; test: In vitro ability of PD-1 to inhibit cytokine secretion with IC-261; type: cell-based
# Method: IL-2, IL-8, and IFN-γ concentrations in the supernatant were measured by enzyme linked immunosorbent assay (ELISA) from BioLegend.
# IC-261 (AdooQ®: A15764), a small molecule specific inhibitor of VRK2 was used to evaluate the effect of VRK2 inhibition in tumor growth using mice MC38 syngenetic tumor model. This drug was also used in in vitro experiments where the ability of PD-1 to inhibit cytokine secretion was evaluated.
# [7] = system: T cells; test: Toxicity to T cells; type: cell-based
SMILES,"MC38 tumor volume compared to Prexasertib (LY2606368) and PF-477,736 ([1]; AZD-7762 25 mg/kg, PF 10 mg/kg, Prexasertib 10 mg/kg, 12 days)","tumor inhibition ([1]; AZD-7762 in combination treatment with anti-PD-1, MC38 in C57BL/6 mice)","tumor volume compared to vehicle or anti-PD-1 antibody treatment ([1]; AZD-7762 treatment alone, MC38)","anti-tumor activity after CD4+ and CD8+ T cell depletion ([1]; MC38 model, T cells depleted with anti-CD4 and anti-CD8 antibodies)","anti-tumor responses compared to PD-1 blockade alone or AZD-7762 treatment alone ([1]; combination of AZD-7762 with PD-1 blockade, MC38)","inhibited tumor growth ([1]; monotherapy, 25 mg/kg intraperitoneal (I.P.), MC38 in C57BL/6 mice)",PAK2 S197 phosphorylation following PD-1 ligation [2],"reduction in tumor growth ([3]; AZD-7762 alone, 4T1 in BALB/c mice (resistant to PD-1 monotherapy))","reduction in tumor growth, combination versus AZD-7762 alone ([3]; combination of AZD-7762 and anti-PD-1, 4T1 in BALB/c mice)",proportion of CD8 T cells in tumor draining lymph nodes (tdLN) ([4]; combination of AZD-7762 with PD-1 blockade),proportion of CD44+PD-1+ T cells in spleen and tdLN ([4]; combination therapy),proportion of activated CD44+CD69+ CD4+ and CD8+ T cells in the tdLN ([4]; combination therapy),"LAG-3+ CD8+ T cells ([4]; combination therapy, tdLN)",cytotoxicity compared to two other CHK specific inhibitors [5],"inhibition of tumor growth ([1]; monotherapy, 5 mg/kg, MC38 in C57BL/6 mice)",effect on PD-1 signaling and function (ability of PD-1 to inhibit cytokine secretion) [6],toxicity to T cells [7]
NC(=O)Nc1cc(-c2cccc(F)c2)sc1C(=O)N[C@H]1CCCNC1 [AZD-7762],marked decrease in MC38 tumor volume,around 90%,significantly decreased tumor volume,fully reversed the anti-tumor activity; also recorded: impaired the efficacy,augmented anti-tumor responses,~80%,fully inhibited,~30%,similar,increased proportion of CD8 T cells,elevated proportion,significantly increased proportion,significantly increased,less cytotoxicity,–,–,–
COc1cc(OC)c(C=C2C(O)=Nc3ccccc32)c(OC)c1 [IC-261],–,–,–,–,–,–,–,–,–,–,–,–,–,–,"inhibition of tumor growth, like anti-PD-1 dosed as monotherapy",interfere with PD-1 signaling and function,not toxic to T cells
